Consider five compounds from patent US4018775A, “5-Phenyl-thiazolidin-4-one derivatives” (Warner-Lambert Company, priority 1974, dated 1977).

What all share (format): in vivo
For one series, the system named is male mice (NMRI). As to the kind of experiment: Acute toxicity in the 7 day test on mice. The following applies: intragastral (i.g.), 7 days observation. The method, then:
(§1) The acute toxicity of the thiazolidones according to the present invention was investigated on male mice (NMRI) with a body weight of 21-26 g. Before commencement of the experiment, the animals fasted for 24 hours but with water available ad libitum. There were 4 mice in each dosage group. The dosage was increased by a factor of 2. The test compounds were suspended in a 1% tragacanth mucilage and administered intragastrally by, means of a stomach probe. The amount of liquid administered was 0.2 ml./10 g. body weight. […] Silymarin was used as standard substance. The LD50 values determined are set out in the following Table I: […]

Series [1] can be described thus: Acute toxicity in the 7 day test on mice. The following applies: mouse, in vivo, po; male NMRI mice, intragastral (i.g.), 7 days observation. The protocol: as §1
The subject of series [2] is mice with liver damage caused by α-amanitine. As to the kind of experiment: Anti-hepatotoxic action: survival rate of mice with liver damage caused by α-amanitine. Particulars: for effect on survival rate of α-amanitine liver damaged mice (in words): in comparison with untreated control animals. The method, then:
As a further animal experimental test model for the testing of the anti-hepatotoxic actions of pharmaceuticals, use is made of the liver damage in mice produced by α-amanitine.
Since it is extremely difficult to obtain α-amanitine in sufficient amounts, only a small amount of α-amanitine was available for these experiments so that the experiments could only be carried out to a very limited extent.
The influence of Compounds Nos. 1 and 4 was determined on the survival rate of mice with liver damage brought about by α-amanitine. As standard substance, there was again used silymarin which was tested by us in the dosage found to be effective by Hahn et al. (Arzneimittel Forschung, 18, 697/1968) as an anti-hepatotoxic in the same experimental procedure.
Each experimental group consisted of 25 animals. The test substances were administered daily over a period of 6 days, administration being intragastrally in a tragacanth mucilage (0.2 ml./10 g. body weight), using a stomach probe.
The intraperitoneal administration of, in each case, 0.3 mg./kg. α-amanitine took place in all experimental groups on the second day of the experiment. The dosage of α-amanitine was so chosen that the mortality rate of the untreated animals remained below 100%. The survival rate of the animals of all experimental groups was monitored daily for a total period of 14 days. The statistical comparison of the survival rate took place according to the Vierfelder […]. The comparative values obtained are set out in the following Table III: […]

[3] abbreviates: 2 × 250 mg/kg/day i.g., untreated 52%, 14 days.

Read-outs that look alike come from different tables or passages of the source.

As a reminder, the LD50 is the dose expected to kill half of the subjects tested. High values mean lower toxicity, low ones greater toxicity. For `CCOC(=O)C=C1SC(CC)(c2ccccc2)C(=O)N1C` (stereo not drawn) [Compound 3, ethyl 3-methyl-5-ethyl-5-phenyl-4-oxo-Δ^2,^α -thiazolidine-acetate], the LD50 result in the series on male mice (NMRI) was “about 1600 mg./kg”. The same compound gave a 50% lethal dose (LD50) at 168 h in series [1] of roughly 1600 mg/kg.
On to `CCOC(=O)C=C1SC(c2ccccc2)(N2CCCCC2)C(=O)N1CC` (stereo not drawn) [Compound 4, Ethyl 3-ethyl-5-phenyl-5-N-piperidino-4-oxo-Δ^2,^α -thiazolidine-acetate], for which, in series [2], the “survival rate of α-amanitine liver damaged animals, treated” value (shortened to “survival rate … treated”) is reported as 100% and the “effect on survival rate of α-amanitine liver damaged mice (in words)” value is given as “statistically highly significant”. For the same compound, the “survival rate … treated” value in series [2] (setting [3]) is 100%. Besides, the LD50 at 168 h in series [1] was greater than 1600 mg/kg.
As to `CCOC(=O)C=C1SC(c2ccccc2)(N2CCCC2)C(=O)N1C` (stereo not drawn) [Compound 2, ethyl 3-methyl-5-phenyl-5-N-pyrrolidino-4-oxo-Δ^2,^α -thiazolidine-acetate], the LD50 at 168 h in series [1] was greater than 1600 mg/kg.
For the compound `CCOC(=O)C=C1SC(c2ccccc2)(N2CCCCC2)C(=O)N1C` (stereo not drawn) [Compound 1, ethyl 3-methyl-5-phenyl-5-N-piperidino-4-oxo-Δ^2,^α -thiazolidine-acetate], the “survival rate … treated” value in series [2] (setting [3]) was 92%. Besides, the “effect on survival rate of α-amanitine liver damaged mice (in words)” value in series [2] is “clearly increases the survival rate”. The LD50 at 168 h in series [1] is greater than 1600 mg/kg.
For the compound `CCOC(=O)C=C1SC(c2ccccc2)(N(C)CCO)C(=O)N1CC` (stereo not drawn) [Compound 5, Ethyl 3-ethyl-5-phenyl-5-(methyl-β-hydroxyethylamino)-4-oxo-Δ^2,^α -thiazolidine-acetate], the LD50 at 168 h in series [1] was greater than 1600 mg/kg.
